According to the NIST ThermoML archive (doi:10.1021/je500857w):

Experiment: xn = mol fraction of the nth substance listed
Conditions: Gas, Vibrating wire viscometry, x1 = 0.949

C [methane] + CCC
Conditions	viscosity [mPa·s]
199.92 K, 10367 kPa	0.03814
200.6 K, 13841 kPa	0.04236
202.32 K, 17279 kPa	0.04452
203.24 K, 24182 kPa	0.05008
203.36 K, 20735 kPa	0.04739
203.36 K, 27628 kPa	0.05294
203.43 K, 25922 kPa	0.0511
204.19 K, 31114 kPa	0.05549
255.51 K, 24135 kPa	0.03085
255.57 K, 31095 kPa	0.03577
255.59 K, 25902 kPa	0.03221
255.59 K, 27592 kPa	0.03348
255.62 K, 20701 kPa	0.02791
311.08 K, 25869 kPa	0.02348
311.11 K, 31037 kPa	0.0265
311.12 K, 20946 kPa	0.02061
311.13 K, 24419 kPa	0.02279
311.13 K, 27584 kPa	0.02453
366.88 K, 24192 kPa	0.01997
366.89 K, 25926 kPa	0.02064
366.89 K, 27645 kPa	0.02138
366.89 K, 31144 kPa	0.0226
423.62 K, 24191 kPa	0.01944
423.63 K, 25937 kPa	0.01988
423.63 K, 27640 kPa	0.02032
423.63 K, 31097 kPa	0.02136
